These results are taken from ChEMBL document CHEMBL1128921, “Mechanism-based inactivation of serine proteases by dichlorocyclopropane fused lactone derivatives” (Bioorg Med Chem Lett, 1996).

Test [1] concerns the target T1, Chymotrypsin-like elastase family member 2A (Sus scrofa) (UniProt P08419).
T1 sequence (whole entry): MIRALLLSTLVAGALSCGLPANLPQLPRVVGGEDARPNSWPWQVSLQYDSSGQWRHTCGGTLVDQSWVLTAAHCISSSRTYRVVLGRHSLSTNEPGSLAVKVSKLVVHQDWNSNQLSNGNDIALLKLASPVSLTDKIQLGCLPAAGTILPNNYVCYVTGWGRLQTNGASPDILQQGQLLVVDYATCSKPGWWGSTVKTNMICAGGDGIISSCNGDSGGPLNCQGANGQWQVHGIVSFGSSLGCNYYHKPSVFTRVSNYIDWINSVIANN
Description: Compound was evaluated for inhibitory activity against PP elastase at a concentration of 1.2 x 10e-3; NI = No inactivation.

Test [2] concerns the target Chymotrypsinogen A (Bos taurus) (UniProt P00766). Description: Compound was evaluated for inhibitory activity against alpha-chymotrypsin at a concentration of 5.0 x 10e-4.
Test [3] has the same target. Put plainly: Compound was evaluated for inhibitory activity against alpha-chymotrypsin at a concentration of 6.0 x 10e-3.
Test [4] shares this target. Put plainly: Compound was evaluated for inhibitory activity against alpha-chymotrypsin at a concentration of 7.5 x 10e-6.
In test [5] the target is T1, Chymotrypsin-like elastase family member 2A (Sus scrofa). Description: Compound was evaluated for inhibitory activity against PP elastase at a concentration of 2.0 x 10e-5; NI = No inactivation.
The target in test [6] is Chymotrypsinogen A (Bos taurus) (UniProt P00766). Description: Compound was evaluated for inhibitory activity against alpha-chymotrypsin at a concentration of 5.0 x 10e-4; NI = No inactivation.
Test [7] has as its target T1, Chymotrypsin-like elastase family member 2A (Sus scrofa). Description: Compound was evaluated for inhibitory activity against PP elastase at a concentration of 1.95 x 10e-2; NI = No inactivation.
Test [8] addresses Chymotrypsinogen A (Bos taurus) (UniProt P00766). Description: Compound was evaluated for inhibitory activity against alpha-chymotrypsin at a concentration of 1.95 x 10e-2; NI = No inactivation.

The structures appear in SMILES notation.

Take `C[C@H](NC(=O)CCC(=O)O)C(=O)N[C@@H](C)C(=O)N[C@@H](Cc1ccccc1)C(=O)OC1CC1(Cl)Cl` (stereo partly drawn): the “K obs / 1” value in test [1] was “No inactivation”; in test [2], 0.337 M⁻¹ s⁻¹.

Regarding `O=C(O)CCC(=O)N[C@@H](Cc1ccccc1)C(=O)OC1CC1(Cl)Cl` (stereo partly drawn), the K obs / 1 in test [3] came to 0.054 M⁻¹ s⁻¹.

Turning to `O=C1OC2C(CC1Cc1ccccc1)C2(Cl)Cl` (stereo not drawn), the K obs / 1 in test [4] was 54 M⁻¹ s⁻¹; in test [5] it was “No inactivation”.

With `O=C1OCCCC1Cc1ccccc1` (stereo not drawn), in test [6], the “K obs / 1” value is “No inactivation”.

In the case of `O=C1CCC2C(O1)C2(Cl)Cl` (stereo not drawn), the “K obs / 1” value in test [7] and in test [8] was “No inactivation” each time.
